According to ChEMBL document CHEMBL1124218, “Inhibition of murine thymidylate synthase and human dihydrofolate reductase by 5,8-dideaza analogues of folic acid and aminopterin” (J Med Chem, 1988):

Molecular target: Thymidylate synthase (Mus musculus, UniProt P07607)
Assay: Inhibitory activity against thymidylate synthase isolated from L1210 leukemia cells
Format: cell-free
Conditions: read-out: I50

Chain of Thymidylate synthase (P07607 whole entry): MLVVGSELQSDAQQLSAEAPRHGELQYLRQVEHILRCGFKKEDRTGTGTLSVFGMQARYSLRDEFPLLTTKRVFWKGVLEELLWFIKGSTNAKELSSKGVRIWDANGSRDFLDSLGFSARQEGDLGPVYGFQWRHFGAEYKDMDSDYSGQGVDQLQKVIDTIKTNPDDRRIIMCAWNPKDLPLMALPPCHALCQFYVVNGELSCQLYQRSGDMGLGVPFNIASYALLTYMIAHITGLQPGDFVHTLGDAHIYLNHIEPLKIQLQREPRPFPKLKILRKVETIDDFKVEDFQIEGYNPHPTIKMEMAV

IC50 | SMILES
8.6 µM | C#CCN(Cc1ccc(C(=O)NC(CCC(=O)O)C(=O)O)cc1)c1ccc2nc(N)nc(O)c2c1 (stereo not drawn)
0.098 µM | Nc1nc(N)c2c(Cl)c(NCc3ccc(C(=O)NC(CCC(=O)O)C(=O)O)cc3)ccc2n1 (stereo not drawn)
5 µM | Nc1nc(N)c2cc(CNc3ccc(C(=O)NC(CCC(=O)O)C(=O)O)cc3)ccc2n1 (stereo not drawn)
0.13 µM | CN(Cc1ccc2nc(N)nc(O)c2c1)c1ccc(C(=O)NC(CCC(=O)O)C(=O)O)cc1 (stereo not drawn)
4.4 µM | C#CCN(Cc1ccc(C(=O)NC(CCC(=O)O)C(=O)O)cc1)c1ccc2nc(N)nc(N)c2c1 (stereo not drawn)
3.2 µM | C=CCN(Cc1ccc(C(=O)NC(CCC(=O)O)C(=O)O)cc1)c1ccc2nc(N)nc(N)c2c1 (stereo not drawn)
0.55 µM | Nc1nc(N)c2cc(NCc3ccc(C(=O)NC(CCC(=O)O)C(=O)O)cc3)ccc2n1 (stereo not drawn)
0.15 µM | Cc1c(NCc2ccc(C(=O)NC(CCC(=O)O)C(=O)O)cc2)ccc2nc(N)nc(N)c12 (stereo not drawn)
0.7 µM | Cc1c(N(C)Cc2ccc(C(=O)NC(CCC(=O)O)C(=O)O)cc2)ccc2nc(N)nc(O)c12 (stereo not drawn)
0.6 µM | CN(Cc1ccc2nc(N)nc(N)c2c1)c1ccc(C(=O)NC(CCC(=O)O)C(=O)O)cc1 (stereo not drawn)
9.8 µM | Nc1nc(O)c2cc(CN(C=O)c3ccc(C(=O)NC(CCC(=O)O)C(=O)O)cc3)ccc2n1 (stereo not drawn)
1.3 µM | Nc1nc(=O)c2cc(NCc3ccc(C(=O)NC(CCC(=O)O)C(=O)O)cc3)ccc2[nH]1 (stereo not drawn)
0.22 µM | Nc1nc(O)c2cc(CSc3ccc(C(=O)NC(CCC(=O)O)C(=O)O)cc3)ccc2n1 (stereo not drawn)
6.1 µM | C=CCN(Cc1ccc(C(=O)NC(CCC(=O)O)C(=O)O)cc1)c1ccc2nc(N)nc(O)c2c1 (stereo not drawn)
11 µM | Nc1nc(O)c2cc(N(C=O)Cc3ccc(C(=O)NC(CCC(=O)O)C(=O)O)cc3)ccc2n1 (stereo not drawn)
4 µM | Nc1nc(O)c2c(Cl)c(NCc3ccc(C(=O)NC(CCC(=O)O)C(=O)O)cc3)ccc2n1 (stereo not drawn)
2.2 µM | Cc1c(NCc2ccc(C(=O)NC(CCC(=O)O)C(=O)O)cc2)ccc2nc(N)nc(O)c12 (stereo not drawn)
0.19 µM | Nc1nc(N)c2c(Cl)c(CNc3ccc(C(=O)NC(CCC(=O)O)C(=O)O)cc3)ccc2n1 (stereo not drawn)
> 10 µM | Nc1nc(N)c2cc(CN(C=O)c3ccc(C(=O)NC(CCC(=O)O)C(=O)O)cc3)ccc2n1 (stereo not drawn)
0.2 µM | CN(Cc1ccc(C(=O)NC(CCC(=O)O)C(=O)O)cc1)c1ccc2nc(N)nc(O)c2c1 (stereo not drawn)
> 10 µM | Nc1nc(N)c2cc(N(C=O)Cc3ccc(C(=O)NC(CCC(=O)O)C(=O)O)cc3)ccc2n1 (stereo not drawn)
0.033 µM | CN(Cc1ccc(C(=O)NC(CCC(=O)O)C(=O)O)cc1)c1ccc2nc(N)nc(N)c2c1 (stereo not drawn)
12 µM | Nc1nc(O)c2cc(COc3ccc(C(=O)NC(CCC(=O)O)C(=O)O)cc3)ccc2n1 (stereo not drawn)
